Test results: patent publication US20130317037A1, “METHOD OF ADMINISTRATION AND TREATMENT” (GlaxoSmithKline Intellectual Property Development Limited, priority 2010, published 2013)
Like-named read-outs stand apart in the source and are kept apart here.

Experiments:
T-47D = test: Panel A proliferation assay (CellTiter-Glo); HER2 Gain <5, KRAS WT, PIK3CA p.H1047R; type: cell-based, human; details: for IC50: Homo sapiens, T47D
Experimental: (§1) A total of 15 breast cancer cell lines were used in this study. These cells were cultured in RPMI-1640 and supplemented with 5% or 10% fetal bovine serum, 2 mM GlutaMAX™ and 1 mM sodium pyruvate, or in growth medium recommended by the suppliers [American Type Culture Collection, Manassas, Va., USA; Developmental Therapeutics Program, National Cancer Institute, Bethesda, Md., USA; German Collection of Microorganisms and Cell Cultures (DSMZ), Braunschweig, Germany; European Collection of Cell Cultures (ECACC), Porton Down, UK]. Cells of each line were seeded into a 384-well microtiter plate at two cell densities. Low density ranges were 300-1800 cells/well, and a high density was 600 to 3600 cells/well). The plating density was determined by the rate of proliferation of the cell line in the absence of any inhibitor and varied amongst cell lines. High plating densities were double that of low density. Each cell density was plated in triplicate. In total there were 30 wells to be treated with increasing concentrations of Compound B for each cell line at each density. In addition, there were 24 wells of dimethyl sulfoxide (DMSO)-treated controls at each density. After seeding, the cells were incubated at 37° C. in 5% CO2 for 24 hours. Subsequently, Compound B was added to each cell line with 10 concentrations. The dosing solution of Compound B was first prepared in DMSO at a master stock concentration of 10 mM. […] were then made of the stock solution to give a range of working stock concentrations; 10.00 mM, 3.164 mM, 1.001 mM, 316.9 μM, 100.3 μM, 31.74 μM, 10.04 μM, 3.178 μM, 1.006 μM and 318.3 nM. The working stock concentrations of Compound B were then dispensed into the seeded cancer cell lines using a Biomek FX liquid handler to give final treatment concentrations of 0.1% of the stock concentration. A similar volume of DMSO without Compound B was dispensed into the 24 control wells of each seeding density at a concentration of 0.1%. Also, a zero-time plate prepared with a similar cell seeding was read for each cell line at each seeding density immediately after the addition of the DMSO control. After a 72 h incubation, an equal volume of the CellTiter-Glo (CellTiter-Glo Luminescent Cell Viability Assay, Promega, Madison, Wis.) to that of the cell culture medium was added into each well of the plate. After the contents were mixed to induce cell lysis and stabilization, cell luminescence was recorded using a SpectraMax M5^e (Molecular Devices, Sunnyvale, Calif., USA)
(§2) The luminescence of Compound B treated cells was compared relative to the average of the 24 DMSO-treated control wells at each cell density for every concentration of Compound B for all triplicate wells. The percent intensity values were used in model 205 of XLfit in Microsoft Excel to calculate gIC50s for the low and high seeding density (a 4 parameter logistical fit). Specifically, the midpoint of the growth window (the gIC50) falls half way between the number of cells at the time of compound addition (T=0) and the growth of control cells treated with DMSO. The gIC50 value serves as a metric for measuring the inhibition of proliferation in cancer cells. […] Finally, where data quality permits, the Ymin values (defined as the maximum growth inhibition relative to the cell density at Time-zero) were calculated as a measure of cytotoxicity where data were of reasonable quality.

MCF7 = test: Panel A proliferation assay (CellTiter-Glo); HER2 Loss 1 copy, KRAS WT, PIK3CA p.E545K; type: cell-based, human; details: for IC50: Homo sapiens
Experimental: as §1, §2

184B5 = test: in vitro; type: cell-based
Method in brief: (§3)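 Cells were plated the day before dosing at densities chosen to keep controls sub-confluent, then treated for three days with 8 serial 1:5 DMSO dilutions. A time-0 plate gave the baseline; GI50 is the concentration halving net growth, [(Ti−Tz)/(C−Tz)]×100=50, per the NCI DTP screen method.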

BT549 = test: cells; type: cell-based
Method in brief: as §3

MDAMB175VII = test: cells; type: cell-based
Method in brief: as §3

ZR751 = test: cells; type: cell-based
Method in brief: as §3

## COc1ncc(-c2ccc3nccc(-c4ccnnc4)c3c2)cc1NS(=O)(=O)c1ccc(F)cc1F [Compound B, 2,4-difluoro-N-{2-(methyloxy)-5-[4-(4-pyridazinyl)-6-quinolinyl]-3-pyridinyl}benzenesulfonamide]
T-47D; high seeding density, 72 h, read-out: High Density gIC50
  IC50: 1.8 nM
T-47D; low seeding density, 72 h, read-out: Low Density gIC50
  IC50: 1.1 nM
T-47D; mean of low and high density, read-out: Mean gIC50
  IC50: 1.45 nM
T-47D; high density, % of cells at T = 0
  High Density Y-Min: 103.6%
T-47D; low density, % of cells at T = 0
  Low Density Y-Min: 104.6%
MCF7; MCF7, high seeding density, 72 h, read-out: High Density gIC50
  IC50: 1.1 nM
MCF7; MCF7, low seeding density, 72 h, read-out: Low Density gIC50
  IC50: 2.5 nM
MCF7; MCF7, mean of low and high density, read-out: Mean gIC50
  IC50: 1.8 nM
MCF7; MCF7, high density, % of cells at T = 0
  High Density Y-Min: 82.2%
MCF7; MCF7, low density, % of cells at T = 0
  Low Density Y-Min: 78.5%
184B5; 184B5, total growth inhibition
  TGI: 46.3 nM
184B5; Homo sapiens, 72 h, 184B5, three-day drug treatment, read-out: gIC50
  IC50: 5.6 nM
BT549; BT549, total growth inhibition
  TGI: >33000.0 nM
BT549; Homo sapiens, BT-549, 72 h, BT549, three-day drug treatment, read-out: gIC50
  IC50: 42.7 nM
BT549; Homo sapiens, BT-549, BT549, 50% net loss of cells vs time 0, read-out: LC50 (the source's name)
  CC50: > 33000 nM
MDAMB175VII; Homo sapiens, MDA-MB-175-VII, 50% net loss of cells vs time 0, read-out: LC50 (the source's name)
  CC50: 501 nM
MDAMB175VII; Homo sapiens, MDA-MB-175-VII, 72 h, three-day drug treatment, read-out: gIC50
  IC50: 4.4 nM
MDAMB175VII; total growth inhibition
  TGI: 13.5 nM
ZR751; Homo sapiens, ZR-75-1, 72 h, ZR751, three-day drug treatment, read-out: gIC50
  IC50: 10.5 nM
ZR751; Homo sapiens, ZR-75-1, ZR751, 50% net loss of cells vs time 0, read-out: LC50 (the source's name)
  CC50: 248 nM
ZR751; ZR751, total growth inhibition
  TGI: 30.2 nM
